In US6414114B2, “Disulfides and thiol compounds” (Dovetail Technologies, Inc., priority 1998, dated 2002):

Experiments:
B16 melanoma = details: administered along with cyclophosphamide; cited from earlier work
Cloudman S-91 melanoma = details: melanomas already established; cited from earlier work
NS-1 mouse myeloma = details: repeated administration as monotherapy soon after inoculation with relatively low doses of tumor; cited from earlier work
MOPC-315 myeloma = details: administered along with melphalan; cited from earlier work
[1] = Solubility in acetonitrile/water; type: physicochemical; details: solvent acetonitrile/water as given in the value

Compound | benefit as adjunct to chemotherapy (B16 melanoma) | percent survival (Cloudman S-91 melanoma) | survival rates (NS-1 mouse myeloma) | benefit as adjunct to chemotherapy (MOPC-315 myeloma) | Solubility [1]
NCCC(=O)NCCSSCCNC(=O)CCN [β-alethine, Beta-alanyl cysteamine disulfide] | beneficial adjunct to chemotherapy | increase the percent survival | significantly increased survival rates | beneficial adjunct to chemotherapy | 
O=C(CCNC(=O)OCc1ccccc1)N[C@@H](CSSC[C@H](NC(=O)CCNC(=O)OCc1ccccc1)C(=O)O)C(=O)O [Cbz-βAla-Cystine-βAla-Cbz, Cbz-beta-Ala-Cystine-beta-Ala-Cbz] |  |  |  |  | Soluble in 30% Acetonitrile/water
O=C(CCNC(=O)OCc1ccccc1)NC(CS)C(=O)O (stereo not drawn) [Cbz-beta-Ala-Cys] |  |  |  |  | Soluble in 20% Acetonitrile/Water
